# US20130310347A1, “MULTI-MODALITY MOLECULAR IMAGING HIGH-THROUGHPUT ASSAY FOR IDENTIFYING HEAT SHOCK PROTEIN 90 (HSP90) INHIBITORS” (The Board of Trustees of the Leland Stanford Junior …, priority 2012, published 2013)
# Key:
# [1] = system: endogenous Hsp90(α/β)/p23 interactions; assay: Co-immunoprecipitation of Hsp90(α/β)/p23; format: cell-based, human; conditions: 5 μM, 24 h, 293T cells
# Method: FIG. 5B is a digital image of a western blot analysis illustrating the effects of compounds CP1, CP9 and CP18 on disruption of Hsp90α/p23 and Hsp90β/p23 as determined by co-immunoprecipitation using antibodies against p23 and probing with Hsp90α- and Hsp90β-specific antibodies. The blot was probed with antibodies against p23 to ensure similar immunoprecipitation efficiency. Cells treated with 2 μM of PU-H71 served as a positive control.
# Cells treated with PU-H71 (2 μM) served as a positive control.
# Cells treated with 2 μM of PU-H71 served as a positive control. Western blotting of Hsp70, phosphorylated and total Akt and co-immunoprecipitation of Hsp90(α/β)/p23 interactions was performed as described Inglese et al., (2006) Proc. Nat. Acad. Sci. U.S.A. 103: 11473-11478, incorporated herein by reference in its entirety. The expression of Raf-1 was determined using rabbit polyclonal antibodies against Raf-1 (0.5 μg/ml, Abcam).
# Hsp90 client proteins = assay: Western blotting of Hsp90 client proteins in normal MEF cells; format: cell-based; conditions: normal mouse embryonic fibroblasts
# From the text: CP9 had no effect on the expression of the Hsp90 client proteins in normal mouse embryonic fibroblasts (MEF) cells (FIG. 10C).
# 1975 cells = assay: Alamar Blue cell proliferation; format: cell-based; conditions: 1975, 24 h
# Method: FIG. 6A is a series of graphs illustrating the effect of CP9 on cell proliferation determined by an Alamar Blue assay. The indicated cancer cell lines were treated with different concentrations of CP9 for 24 h prior to incubation with Alamar blue for 4 h. The Hsp90 inhibitors PU-H71 and 17AAG were used as positive controls. Emissions at 570 nm in CP9-treated cells were normalized to that of carrier control-treated cells. Results are expressed as normalized cell proliferation±S.E.M.
# CP9 had no effect on proliferation of normal MEFs. Since CP9 led to decrease in phosphorylated Akt (FIGS. 5A and 10A-10C), it was expected to inhibit glucose metabolism through relief of inhibition of glycogen synthase kinase […] (Nair & Olanow (2008) J. Biol. Chem. M707238200; Dandekar et al., (2007) J. Nucl. Med. 48: 602-607).
# [2] = system: 1975 lung cancer, 2008 ovarian cancer and HT29 colon cancer cells; assay: 3H-FDG cell uptake (glucose metabolism); format: cell-based; conditions: 24 h post treatment
# Method: FIG. 6B is a graph illustrating the effect of CP9 on glucose metabolism determined in 1975 lung cancer, 2008 ovarian cancer and HT29 colon cancer cells by ^3H-FDG cell uptake studies 24 h post treatment. Normal MEFs were used as a control. Results were expressed as mean counts/μg protein/initial dose±S.E.M. *, p<0.05 vs. carrier control treated cells.
# Inhibition of glucose metabolism by CP9 in cell culture was monitored by cell uptake studies with ^3H-fluoro-deoxyglucose (^3H-FDG) as described in Dandekar et al. ((2007) J. Nucl. Med. 48: 602-607) as shown in FIG. 6B. PU-H71 was used as a positive control.
# To determine the downstream effects of lead compounds on glucose metabolism, 1.5×10^5 293T, 1975 and 2008 and MEFs cells plated in 24-well plate for 24 h, prior to treatment with different concentrations of CP9 for 24 or 48 h and subsequent incubation with 1 μCi of ^3H-FDG in 500 μl of medium for 1 h at 37° C. Cells treated with 2.5 μM of PU-H71 served as a positive control. The total counts in each sample were normalized to that of the dose added to each well and to the amount of protein, and expressed as mean counts/dose/μg protein±S.E.M. Likewise, the effect of CP9 on cell proliferation was determined using 1 μCi of ^3H-FLT per well after 2 h of incubation at 37° C.
# [3] = system: Hsp90 client proteins (phosphorylated/total Akt, Raf-1); assay: Ex vivo western blotting of excised tumors; format: in vivo, mice; conditions: western blotting after last imaging time point; p>0.05
# Method: To determine if the inhibition of Hsp90(α/β)/p23 interactions also leads to degradation of Hsp90 client proteins in mice, tumors were excised from sacrificed mice after the last PET/CT imaging time point. The expression of phosphorylated/total Akt and Raf-1 in tumor lysates was determined by western blotting. α-tubulin was used as a loading control.
# Mice were euthanized after the last imaging time points and tumors were excised and homogenized in tissue extraction buffer in the presence of HALT® protease and phosphatase inhibitors (all from Pierce, Ill.). Protein concentrations were determined by Biorad Protein Dc assay. The expression of phosphorylated/total Akt, Raf-1 and […] were determined by western blotting as described in Chan et al., (2008) Cancer Res. 68: 216-226. Western blot images were quantitated using NIH Image J, and expressed as the ratio of target protein/α-tubulin for each treatment group.
compound,measurement,setting,value
"Cc1cc(NC(=O)CSc2nc(-c3cccs3)cc(C(F)(F)F)n2)no1 [CP9, N-(5-methylisoxazol-3-yl)-2-(4-(thiophen-2-yl)-6-(trifluoromethyl)pyrimidin-2-ylthio)acetamide]",disruption of endogenous Hsp90(α/β)/p23 interactions by co-immunoprecipitation,[1],disruption of endogenous Hsp90(α/β)/p23 interactions
same,expression of Hsp90 client proteins,Hsp90 client proteins,no effect
same,inhibition of cell proliferation vs PU-H71 and 17-AAG,1975 cells,more effective than PU-H71 and 17-AAG
same,3H-FDG uptake in the cancer cells,[2],decreased
same,Hsp90 client proteins in excised tumors relative to carrier control,[3],did not lead to significant degradation
